Measurements reported in patent US20250134794A1, “BIOACTIVE WALNUT PEPTIDES AND COMPOSITIONS FOR TOPICAL TREATMENT OF SKIN” (L'OREAL, priority 2023, published 2025).
Where no end group is shown, it is not given here.

What was measured:
Type in all cases: cell-based
Interleukin 6 (IL-6) = assay: Interleukin-6 released from Adult Dermal Human Fibroblasts (LEGENDplex Human Inflammation Panel); conditions: 4 days treatment, concentration not given (100 uM or 250 uM)
Method: (§1) Adult Dermal Human Fibroblasts (Lot 2485, Passage 5, Cell Applications) were expanded and seeded into a 48-well plate at a density of 5,000 cells/well. Cells were grown in Eagle's Minimal Essential Medium (EMEM) supplemented with Fetal Bovine Serum (FBS) and Penicillin-Streptomycin. Cells attached overnight and then culture media was aspirated and replaced with media containing either 100 uM or 250 uM of Peptide I, Peptide II, or Peptide III. Cells were cultured for […] with treatment with renewal of treatment medium every other day with the exception of weekends. Media was collected at the end of the culture period. Inflammatory cytokines were quantified by running a LEGENDplex Human Inflammation Panel 1 13-plex (Catalogue #740809, Biolegend. Protein in the media supernatant was also quantified using the Pierce BCA Protein Assay Kit (Catalogue #23225, ThermoFisher). Microsoft Excel and GraphPad Prism were used for additional analysis and data presentation. The amounts of Interleukin 6 (IL-6) and Interleukin 8 (IL-8) released from the Adult Dermal Human Fibroblasts are shown below in Table 1 and graphically depicted in FIG. 1(a) (for IL-6) and FIG. 1(b) (for IL-8).

Interleukin 8 (IL-8) = assay: Interleukin-8 released from Adult Dermal Human Fibroblasts (LEGENDplex Human Inflammation Panel); conditions: 4 days treatment, concentration not given (100 uM or 250 uM)
Method: as §1

[1] = system: epidermal growth factor (EGF); assay: Epidermal growth factor generated by reconstructed human epidermis (LEGENDplex Human Growth Factor Panel); conditions: 250 μM, 7 days, control = 1.00
Method: (§2) Reconstructed human epidermis (RHE) (EPISKIN/S/13, Episkin) was received and samples were prepared for use. Upon arrival, inserts containing the RHE were removed from the multi-plate and placed in a 12-well plate containing maintenance medium. Tissue serving as untreated control were placed in regular maintenance medium; treatment groups were placed in maintenance medium containing 250 uM of Peptide I, II, or III alone or in combination. Medium was aspirated and replaced every other day with the exception of weekends. RHE was cultured at air-liquid interface at 37C, 5% CO2 and saturated humidity for 7 days. Media was collected at the end of the culture period. Growth factors were quantified by running a LEGENDplex Human Growth Factor Panel (Catalogue #740809, Biolegend. Protein in the media supernatant was also quantified using the Pierce BCA Protein Assay Kit (Catalogue #741061, ThermoFisher). Microsoft Excel and GraphPad Prism were used for additional analysis and data presentation. The amounts of epidermal growth factor (EGF), hepatocyte growth factor (HGF), and transforming growth factor alpha (TGFa) generated by the RHE are shown below in Table 2 and graphically shown in FIG. 2(a) (for EGF) and FIG. 2(b) (for HGF), and FIG. 2(c) (for TGFa).

[2] = system: hepatocyte growth factor (HGF); assay: Hepatocyte growth factor generated by reconstructed human epidermis (LEGENDplex Human Growth Factor Panel); conditions: 250 μM, 7 days, control = 1.00
Method: as §2

[3] = system: transforming growth factor alpha (TGFa); assay: Transforming growth factor alpha generated by reconstructed human epidermis (LEGENDplex Human Growth Factor Panel); conditions: 250 μM, 7 days, control = 1.00
Method: as §2

Keratinocyte stem cells = assay: Holoclone count of keratinocyte stem cells; conditions: 96 hours, control 24.80 ± 6.14
Method: Keratinocyte stem cells (Lot KSC870, Passage 2, Bioalternatives) were seeded in 96-well plates and cultured in Keratinocyte-SFM supplemented with Epidermal Growth Factor and Pituitary Extract. After 4 hours, media was replaced with that containing Peptide II or Peptide III, alone or in combination. Cells were incubated for 96 hours with treatment renewal after 24 hours. After 96 hours, the medium was removed, and cells were fixed with methanol at −20C. Cells were then stained for 10 minutes with a Papanicolaou solution and imaged. The number of holoclone clones were counted. Data was analyzed and plotted using GraphPad Prism. The holocolone count relative to control (normalized) is shown below in Table 3 for different concentrations of peptide II, Peptide III, and combinations of Peptide II and Peptide III.

[4] = system: Adult Dermal Human Fibroblasts; assay: Autophagic vacuoles in aged fibroblasts (Autophagy Assay Kit); design: key: “↑” indicates and increase; “↓” indicates a decrease; “↔” indicates no change; conditions: 7 days
Method: Adult Dermal Human Fibroblasts (Lot 2485, Passage 5, Cell Applications) were expanded and seeded into a 12-well glass bottom plate at a density of 10,000 cells/well. Cells were grown in Eagle's Minimal Essential Medium (EMEM) supplemented with Fetal Bovine Serum (FBS) and Penicillin-Streptomycin. Cells attached overnight and then culture media was aspirated and replaced with media containing either 100 uM or 250 uM of Peptide I, Peptide II, or Peptide III. Cells were cultured for 7 days with treatment with renewal of treatment medium every other day with the exception of weekends. On day 7, cells were stained and imaged for presence of autophagic vacuoles following the protocol in the Autophagy Assay Kit (ab139484, Abcam). The images were compared to determine whether the number of autophagic vacuoles increased, decreased, or remained unchanged. The results are reported below, in Table 4, where “↑” indicates and increase, “↓” indicates a decrease, and “↔” indicates no change.

[5] = system: Adult Dermal Human Fibroblasts; assay: Mitochondrial activity in aged fibroblasts (TMRE-Mitochondrial Membrane Potential Assay Kit); conditions: 250 μM, 7 days, TMRE stain; control = 1.00
Method: Adult Dermal Human Fibroblasts (Lot 2485, Passage 5, Cell Applications) were expanded and seeded into a 12-well glass bottom plate at a density of 10,000 cells/well. Cells were grown in Eagle's Minimal Essential Medium (EMEM) supplemented with Fetal Bovine Serum (FBS) and Penicillin-Streptomycin. Cells attached overnight and then culture media was aspirated and replaced with media containing either 100 uM or 250 uM of Peptide I, Peptide II, or Peptide III. Cells were cultured for 7 days with treatment with renewal of treatment medium every other day with the exception of weekends. On day 7, cells were stained with tetramethylrhodamine ethyl ester (TMRE) and imaged for mitochondrial activity following the protocol in the TMRE-Mitochondrial Membrane Potential Assay Kit (ab113852, Abcam). The active mitochondria (mean intensity normalized to control) were determined and are shown below, in Table 5.

Row | Substance | Pg IL-6/μg Protein (Interleukin 6 (IL-6); first line of each peptide) [Pg/μg Protein] | Pg IL-6/μg Protein (Interleukin 6 (IL-6); second line of each peptide) [Pg/μg Protein] | Pg IL-8/μg Protein (Interleukin 8 (IL-8); first line of each peptide) [Pg/μg Protein] | Pg IL-8/μg Protein (Interleukin 8 (IL-8); second line of each peptide) [Pg/μg Protein] | EGF/μg Protein [1] | HGF/μg Protein [2] | TGFa/μg Protein [3] | Holoclone count (Keratinocyte stem cells; 0.2 mM) | Holoclone count (Keratinocyte stem cells; 0.4 mM) | Autophagic Vacuoles Presence (Compared to Control) ([4]; 100 μM) | Autophagic Vacuoles Presence (Compared to Control) ([4]; 250 μM) | Active Mitochondria (Mean Intensity Normalized to Control) [5]
1 | KVPPLLY [Peptide III] | 291.73 ± 61.03 | 333.61 ± 38.37 | 31.14 ± 22.26 | 32.58 ± 4.06 | 1.79 ± 0.28 | 1.01 ± 0.17 | 1.93 ± 0.60 | 27.40 ± 6.13 | 36.50 ± 5.97 | ↑ | ↔ | 0.97 ± 0.15
2 | TWLPLPR [Peptide I] | 154.52 ± 32.33 | 126.97 ± 29.10 | 22.72 ± 6.45 | 42.71 ± 11.29 | 1.58 ± 0.17 | 0.98 ± 0.20 | 1.37 ± 0.23 |  |  | ↑ | ↑ | 1.158 ± 0.17
3 | YVLLPSPK [Peptide II] | 265.86 ± 58.08 | 257.53 ± 38.82 | 20.36 ± 5.39 | 35.68 ± 11.37 | 1.23 ± 0.16 | 1.28 ± 0.25 | 1.56 ± 0.29 | 27.60 ± 7.59 | 34.30 ± 8.85 | ↑ | ↑ | 1.00 ± 0.19
